The subject of one series is colonic epithelial cells. Nature of the series: In vivo colonic epithelial cell proliferation, [methyl-3H]thymidine incorporation into DNA. More on the design: species or system rats. For orientation: Incorporation of labelled thymidine or its analogues reports DNA synthesis.
Series [1] has as its system human erythrocyte suspension. Nature of the series: Cytotoxicity of fecal water, potassium release from erythrocytes (erythrocyte bioassay). The series is classed as cell-based. On the procedure:
Fecal water was prepared by reconstituting a small amount of freeze-dried feces with double-distilled water to 20 % dry weight. After homogenizing, samples were incubated for 1 hour in a shaking water bath at 37°C, with mixing every 15 min, followed by centrifugation for 20 min at 13.500 g. The supernatants were collected and centrifuged again at 14.000 g for 2 min. The osmolarity (Osmomat 030-D, Gonotec, Berlin, Germany) of the fecal waters was determined. If osmolarity differed from 300 mOsmol/L, another portion of freeze-dried feces was reconstituted with double-distilled water, adjusting the percentage dry weight to obtain fecal water with an osmolarity of 300 mOsmol/L. The fecal waters were stored at -20°C until further analysis.
(§1) Cytotoxicity of fecal water was quantified by potassium release after incubation with a human erythrocyte suspension as described previously and validated earlier with intestinal epithelial cells. The potassium content of the erythrocytes was measured with an Inductive Coupled Plasma […] Emission Spectrophotometer (ICP-AES, Varian, Mulgrave, Australia) and the cytotoxicity of fecal water was calculated and expressed as a percentage of maximal lysis.

The test system of the next series is colonocytes. Nature of the series: Quantification of epithelial (host) DNA in feces by real-time PCR for the β-globin gene. It is filed as in vivo, rats. On the procedure:
Food and demineralised drinking water were supplied ad libitum.
Fecal host DNA content was quantified using DNA extraction and real-time PCR, using rat-specific probe and primers for the β-globin gene. In short, DNA was isolated from 20 mg freeze-dried feces using the QIAamp DNA stool mini kit (Westburg, Leusden, The Netherlands) following the recommendations of the manufacturer for human DNA analysis. […] The standard DNA used for the quantification of the DNA in the feces was isolated from rat spleen, using the Wizard Genomic DNA purification kit (Promega Corporation, Madison, WI, USA). The real-time PCR was performed using the ABI prism 7700 Sequence Detection system (PE Applied Biosystems, Nieuwerkerk a/d IJssel, The Netherlands). Universal Taqman Master Mix and Taqman Exogenous Internal positive Control (IPC) Reagent (Vic ™ probe) were purchased from Applied Biosystems and the Taqman probe containing a 5' FAM labeled fluorescent reporter dye (6-carboxyfluorosein) and a 3' TAMRA quencher dye (6-carboxytetramethylrhodamine) was purchased from Proligo (Paris, France). PCR primers were synthesized by Amersham Pharmacia Biotech Custom DNA Synthesis Service (Roosendaal, The Netherlands). For amplification of host DNA 5 µl of the purified DNA (100-500 ng) was used in a volume of 50 µl, containing 1x Master Mix, 200 nM forward primer (5'-[…]-3'), 200 nM reverse primer (5'-[…]-3'), 100 nM probe (5'-[…]-3'), 1x IPC mix and 1x IPC DNA. The PCR protocol consisted of 2 min 50°C, 10 min 95°C and 40 cycles of 15 sec 95°C and 1 min 62°C.

Another series concerns colon mucosa. Nature of the series: Total DNA content of colon mucosa scrapings (diphenylamine reaction). The series is classed as in vivo, rats. To be noted: spinach study. The source says:
After the experimental feeding period of 14 days, we quantified the colon epithelial cell proliferation as DNA-replication, using [methyl-^3H]thymidine incorporation into DNA. We choose this biochemical method because it is the most rapid, specific and quantitative marker of cell replication in vivo. Moreover, we have shown earlier that DNA-replication highly correlates with faecal water cytotoxicity. This substantiates a cause-and-effect relationship that we want to address in the present study. Non-fasted rats were injected i.p. with [methyl-^3H]thymidine (specific activity 925 GBq / mmol; dose 3.7 MBq / kg body weight; Amersham International, Amersham, UK) in 154 mM NaCl. After 2 hours the rats were killed by CO2 inhalation. The colon was removed and opened longitudinally. Colonic contents were removed by rinsing with 154 mM KCl. […] These homogenates were analyzed for ^3H-thymidine incorporation and for total DNA content. […] A sample (0.5 ml) of the hydrolysate was dissolved in 15 ml Aqua Luma (Lumac-LSC BV., Groningen, The Netherlands) and counted with corrections for quenching on a Beckman LS-7500 liquid scintillation counter. DNA content was determined using the diphenylamine reaction with calf thymus DNA as standard (Sigma).

For series [2], the system named is human erythrocyte suspension. Nature of the series: Cytotoxicity of size exclusion chromatography fractions of lipid extracts of pooled fecal water. It is filed as cell-based. The conditions noted are these: chlorophyll study, heme group: high-molecular weight components eluting around 6 min (Figure 6B). The procedure: as §1
Pooled fecal water from the different treatment groups was first purified, by adding 560 µl water and 2.5 ml diethylether (ether) to 100 µl fecal water, and after vigorous mixing, centrifugation at 1500 g for 5 minutes. The ether phase containing chlorophyll was discarded and the procedure was repeated 2 times. The remaining 660 µl sample was acidified with 60 µl HCl (final HCl concentration 1 M) and further extracted with chloroform / methanol as described earlier. The lipid-containing chloroform phase was obtained after centrifugation (10 min, 1500 g) and evaporated under nitrogen. […] The data was processed and analyzed using Shimadzu software. […] The cytotoxicity of these fractions was determined as described above, after resolubilising the samples in 50 mM NaOH and adjusting to neutral pH and 300 mOsm/L with 3-[N-morpholino]-propanesulfonic acid (MOPS).
In general terms: In gel filtration, larger molecules generally elute earlier.

Procedure for colonic epithelial cells: About eight-week-old, outbred male Wistar rats (Harlan Horst/WU, SPF) were housed individually in metabolic cages in a room with controlled temperature (± 20°C), relative humidity (50-60%) and a light/dark cycle (6 AM to 6 PM). Animals were acclimatized to housing conditions for 5 days before start of the experiment.
In the first study we tested whether spinach prevents the effect of dietary heme. […] During two weeks, four groups of eight rats were fed purified diets. The control group consumed a diet which contained per kg, 200 g casein, 532 g dextrose, 200 g fat (160 g palm fat and 40 g corn oil), 20 g cellulose and 20 mmol calcium phosphate (CaPO4·2H2O, Fluka Chemie Buchs, Switzerland). […]
After the experimental feeding period of 14 days, we quantified the colon epithelial cell proliferation as DNA-replication, using [methyl-^3H]thymidine incorporation into DNA. […] These homogenates were analyzed for ^3H-thymidine incorporation and for total DNA content. […] A sample (0.5 ml) of the hydrolysate was dissolved in 15 ml Aqua Luma (Lumac-LSC BV., Groningen, The Netherlands) and counted with corrections for quenching on a Beckman LS-7500 liquid scintillation counter. DNA content was determined using the diphenylamine reaction with calf thymus DNA as standard (Sigma) [24].

In the case of chlorophyll, the “prevention of heme-induced epithelial hyperproliferation” value in the series with colonic epithelial cells (chlorophyll study, added to heme diet, 1,2 mmol chlorophyll / kg diet, 14 days (Figure 3)) is recorded as “completely prevented”. Also, in series [1] (chlorophyll study, supplemented to the heme diet, fecal water of rats (Figure 5)), the “inhibition of heme-induced increase of cytotoxicity of the fecal water” value is “completely”. Further, the “effect on heme-induced reduction of host DNA in the feces” value in the series on colonocytes (chlorophyll study, supplemented to the heme diet (Figure 4)) is on record as “totally abolished”.
For hemin [heme], the “increase in rate of DNA-replication compared with the control group” value in the series on colonic epithelial cells (spinach study, 0.5 mmol heme / kg diet, 14 days) was 50%. The “decrease of DNA content of the mucosa compared with the other groups” value in the series with colon mucosa (0.5 mmol heme / kg diet) amounted to 20%. The “DNA content of the mucosa” value with colon mucosa (mean ± SEM, n=8 per group) is reported as 4207 µg DNA / g scraping. Besides, the “cytotoxicity of the fecal water compared with the control diet” value in series [1] (chlorophyll study, 0.5 mmol heme / kg diet, fecal water of rats (Figure 5)) is on record as “increase”. The “increase of cytotoxicity of fecal water compared with the control group” value in series [1] (spinach study, fecal water of rats, 0.5 mmol heme / kg diet) is listed as 7 fold. The “host DNA detected in the feces compared to the control diet” value in the series with colonocytes (chlorophyll study, 0.5 mmol heme / kg diet, feces of days 11-14 (Figure 4)) was “strong reduction”. Besides, in the series on colonocytes (summary of examples 1 and 2, dietary heme), the “exfoliation of colonocytes (rat DNA quantification from faeces)” value is on record as “inhibited this exfoliation of colonocytes almost completely”. Further, in series [2], the “cytotoxicity of collected size exclusion chromatography fractions” value is “very high”.

The values above are taken from EP1522308A1, “Use of chlorophyll or analogues for the prevention of cytotoxic effects of dietary heme on the intestinal mucosa” (Stichting Top-Instituut Voedselwetenschappen, priority 2003, dated 2005).
